This data set can be described thus: gradient 5% acetonitrile 3 min, to 50% in 2 min, to 85% in 15 min, held 3 min, 100 µL/min. Conditions: column: Zorbax Extend-C18 2.1 x 50 mm; eluents: water / acetonitrile, 0.1% formic acid. The procedure, abridged:
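Data were gathered over 3 months by HPLC coupled to a quadrupole time-of-flight mass spectrometer, operated in positive and negative ionization mode. Mixtures of ~100 pure standards ran on a Zorbax Extend-C18 column (2.1 × 50 mm, 1.8 μm) at 100 μL/min, with water and acetonitrile each containing 0.1% formic acid and dead and dwell volumes of 40 μL and 900 μL. Retention time was read from adduct peaks picked by computer and checked manually.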
`N#Cc1ccc(C(=O)N2CCN3CCS(=O)(=O)N(C4CC4)C(=O)C3C2)cc1` (stereo not drawn) yielded an RP-LC retention time of 955 s.
To `COC(=O)c1ccc(NC(=O)N2CCC3(CC2)N(CC2CC2)C(=O)CS3=O)cc1` (stereo not drawn) belongs 674 s; to `CCCCC(=O)N1CCCC(C)C1` (stereo not drawn), 878 s.
For `CC1CCN(c2cc(-c3noc(C(=O)NC4CCCCCC4)n3)ccn2)CC1` the value was 1010 s.
To `O=C(CSc1ccc(N2CCCC(C(=O)NC3CC3)C2)nn1)Nc1ccc2c(c1)OCO2` (stereo not drawn) belongs 612 s; to `CCCC(=O)c1cn(CC(=O)NCc2ccc3c(c2)OCCCO3)c2ccccc12`, 876 s; to `COCCCN1C(=O)CSc2c(c3ccccc3n2C)C1C(=O)NCc1ccc(F)cc1` (stereo not drawn), 893 s.
Regarding `Brc1ccc(Nc2c(-c3ccc4c(c3)OCO4)nc3cnccn23)cc1`, the RP-LC retention time was found to be 921 s.
For `Cc1ccc(N2CCN(C(=O)c3sc4ncccc4c3-n3cccc3)CC2)c(C)c1` the value was 1260 s; for `Cc1nnc(-c2ccc3ccn(CC(=O)NCc4cccs4)c3c2)o1`, 729 s; for `Cc1ncsc1C1N(C2CCN(Cc3cn(C)c4ccccc34)CC2)C(=O)C12CCCC2` (stereo not drawn), 693 s.
To `Cc1cc(=O)c(OCc2ccccc2F)cn1CC(=O)NCc1ccco1` belongs 593 s; to `CCn1c(=O)c2cc(C(N)=O)nn2c2ccccc21`, 653 s.
For the compound `COc1ccc(-c2cn3c(CC(=O)N(Cc4ccco4)C4CCCC4)csc3n2)cc1OC`, the RP-LC retention time was determined as 841 s.
Regarding `O=C(c1ccc(-c2ccc3c(c2)CCN3C(=O)Nc2ccc3c(c2)OCCO3)cc1)N1CCOCC1`, the RP-LC retention time is 804 s.
With `CCOC(=O)c1c(C)[nH]c(CN(Cc2ccc3c(c2)OCO3)C(=O)c2ccco2)c1C`, the RP-LC retention time was 991 s.
As to `CC(C)(C)c1csc(-c2csc(S(=O)(=O)NCc3ccccc3Cl)c2)n1`, the RP-LC retention time stood at 1300 s.
For `Cc1ccccc1CC(=O)Nc1ccc2c(c1)CCC(=O)N2CC(C)C` the value was 910 s; for `O=C(c1cocn1)N1CC(F)(F)C[C@H]1c1nnc(-c2ccncc2)o1`, 638 s.
Compound `CN1C(=O)CO[C@@H](C(=O)O)[C@@H]1c1ccccc1` displayed an RP-LC retention time of 621 s.
For `O=C(O)c1cc2nc(-c3ccc(Cl)cc3)cc(C(F)(F)F)n2n1` the value was 927 s; for `O=C(c1ccc(N2C(=O)CCS2(=O)=O)cc1)N1CCN(c2ccccn2)CC1`, 548 s; for `O=C(NCCCN1CCCCC1)c1ccc2c(c1)nc1n2CCN(C2CCCCC2)C1=O`, 621 s.
Compound `Cc1cc(C(=O)CSc2nnnn2-c2ccccc2)c(C)n1Cc1ccco1` showed an RP-LC retention time of 969 s.
Consider `COc1ccc(NC(=O)C2CCc3nc(N4CCOCC4)ncc3C2)cc1F` (stereo not drawn), for which the RP-LC retention time turned out to be 718 s.
`CCc1noc(NC(C)=O)c1-c1ccc(OC)c(S(=O)(=O)Nc2cc(OC)ccc2OC)c1` returned an RP-LC retention time of 774 s.
`Fc1ccc(-c2noc(-c3ccc(N4CCCC4)nc3)n2)cc1` gave an RP-LC retention time of 1040 s.
To `Cc1ccc(C)c(NC(=O)CN2CCN(C(=O)Nc3ccc(Br)cc3)CC2=O)c1` belongs 789 s; to `O=C(CCc1nc2cccnc2n1Cc1cccs1)NCCc1c[nH]c2ccccc12`, 752 s; to `CN(CC1(C)CCOCC1)C(=O)c1c(F)cccc1Cl`, 813 s.
Regarding `Cc1ccc(C(=O)N2CCCC2c2nc(-c3cccc(Cl)c3)no2)cc1C` (stereo not drawn), the RP-LC retention time stood at 1200 s.
To `Cc1noc([C@@H]2CC(F)(F)CN2C(=O)c2cc(C3CC3)[nH]n2)n1` belongs 726 s; to `COc1cc(NC(=O)COc2cc(C)nc(N3CCN(c4ccccc4)CC3)n2)cc(OC)c1OC`, 764 s.
For `CCCC(=O)Nc1cc(-c2nc3ccc(C)cc3[nH]2)ccc1C` the value was 650 s; for `Cc1cccc(NC(=O)c2cnc3c(c2)c(=O)n(C)c(=O)n3-c2ccc(F)cc2)c1`, 904 s; for `O=c1c2sccc2n(Cc2nc(-c3cccc(Br)c3)no2)c(=O)n1-c1ccccc1`, 1050 s.
The compound `COc1cccc(Nc2c(C(N)=O)cnc3c(C)cc(S(=O)(=O)c4cccc(C(=O)N(C)C)c4)cc23)c1` displayed an RP-LC retention time of 683 s.
To `CN(c1ccccc1)c1nc(=O)n(CC(=O)Nc2ccc3c(c2)OCO3)c2ccccc12` belongs 800 s.
As for `CS(=O)(=O)N1CCC(C(=O)N2CCC(Oc3nc4ccc(F)cc4s3)CC2)CC1`, the RP-LC retention time came to 779 s.
To `Cc1ccc(-c2noc(-c3nnn4c3COC(c3ccc(Cl)cc3)C4)n2)cc1` (stereo not drawn) belongs 1310 s.
To `Cc1nnc(-c2nnc(N3CCC(C)CC3)c3ccccc23)o1` belongs 824 s; to `CN(C)S(=O)(=O)c1ccc(CNC(=O)c2cccc(-c3nnc(-c4ccccc4)o3)c2)s1`, 904 s.
For `Cc1ccc(-c2noc(-c3ccccc3S(=O)(=O)N3CCCCC3C)n2)cc1` (stereo not drawn) the value was 1250 s; for `CC(C)C(=O)N1CCC2(C1)c1nc[nH]c1CCN2CC1CCCCC1` (stereo not drawn), 608 s.
`CCNC(=O)C1CCCN(C(=O)Nc2ccc(NC(=O)Nc3ccc(F)cc3)cc2)C1` (stereo not drawn) had an RP-LC retention time of 691 s.
Take `Cc1ccc(CNC(=O)Cn2cccc2-c2nc(-c3ccccc3)cs2)o1`: the RP-LC retention time was determined as 1050 s.
To `Cc1ccc(C)c(-c2coc(-c3ccc(NC(=O)C(C)(C)C)cc3)n2)c1` belongs 1280 s; to `Nc1nc(Nc2ccccc2F)nc2cccc(F)c12`, 615 s.
For the compound `CCn1cc(-c2nc(C(=O)NCc3ccccc3C)cs2)c2cccnc21`, the RP-LC retention time worked out at 1060 s.
To `Cc1ccc(S(=O)(=O)N(C)CC2CCOCC2)cc1C` belongs 886 s; to `Cc1noc(C)c1S(=O)(=O)NCC(c1cccnc1)c1cn(C)c2ccccc12` (stereo not drawn), 700 s; to `Cc1cccc(NC(=O)Nc2nc(C)c(C(=O)NC3CCCC3)s2)c1`, 812 s.
To `O=C(NC(c1ccccc1)c1nnc(N2CCCC2)o1)c1ccc(F)c(Cl)c1` (stereo not drawn) belongs 899 s; to `O=C(Nc1ccc2c(c1)N(C(=O)c1ccccc1)CCC2)c1cccs1`, 876 s.
Take `O=C(COc1ccccc1Cl)N1CCN(c2cc(-c3ccccc3)ncn2)CC1`: the RP-LC retention time came out at 628 s.
The compound `CCNC(=O)c1ccc(-c2nc3cc(NS(=O)(=O)c4cccs4)ccc3n2C)cc1` came in with an RP-LC retention time of 630 s.
For `Cc1ccc(N2CCC(NC(=O)NC3CCCC3)C2=O)cc1C` (stereo not drawn) the value was 788 s; for `Cn1c(C(=O)N2CCN(c3ccccn3)CC2)cc2c(=O)oc3ccccc3c21`, 607 s.

These data come from the METLIN SMRT retention time set (Domingo-Almenara et al. 2019).
